According to patent US5175163A, “Triazolyl thioamide derivates” (Egis Gyogyszergyar, priority 1989, dated 1992):
Like-named read-outs stand apart in the source and are kept apart here.

Key:
[1] = system: Hexobarbital narcosis; assay: Hexobarbital narcosis potentiating effect; conditions: for Therapeutical index: hexobarbital narcosis, white mice, Table V; for ED50: Mus musculus, po, 1 h
Description: Groups consisting of six mice were used for each dose. The test compound was administered orally and one hour after this treatment narcosis was induced by means of a 40 mg/kg i.v. dose of hexobarbital. The control group received carrier instead of the test compound.
The ED50 values thus transformed were calculated.

[2] = in vivo
[3] = system: reserpine ptosis on mice; assay: Antagonism of reserpine ptosis on mice; conditions: for ED50: Mus musculus, sc; for Therapeutical index: reserpine ptosis, mice, Table II
Description: Groups consisting of 10 mice each were treated with 6 mg/kg of reserpine, subcutaneously, according to the method of Hoffmeister et. al. [Arzneim. […] The animals with ptosis were counted 60 and 120 minutes after the administration of the compounds to be tested. Evaluation was carried out as given under the above test.

[4] = system: nicotine spasm and lethality; assay: Inhibition of nicotine spasm and lethality; type: in vivo; conditions: for ED50: po, 1 h, orally, an hour before nicotine 1.4 mg/kg i.v., spasms and lethality within an hour
Description: The test was carried out according to the method of Stone. [Arch. Int. Pharmacodyn.

[5] = Table III (pentetrazole spasm)
[6] = system: pentetrazole spasm; assay: Inhibition of pentetrazole spasm; type: in vivo; conditions: white mice; for ED50: Mus musculus, po, 1 h, orally, one hour before pentetrazole 125 mg/kg intraperitoneally, tonic extensoric spasms of the hind limbs; for Therapeutical index: pentetrazole spasm, Table III
[7] = system: tetrabenazine ptosis on mice; assay: Antagonism of tetrabenazine ptosis on mice; conditions: Mus musculus, po
Description: (§1) Groups consisting of 10-20 mice each were treated perorally, with different doses of the compounds to be tested. The control group was treated only with the corresponding carrier. After 30 minutes tetrabenazine [3-isobutyl-9,10-dimethoxy-1,2,3,4,6,7-hexahydrobenzo[a]-quinolizine-2-one] was administered intraperitoneally at a dosage of 50 mg/kg. The number of animals having closed palpebral fissure was determined in each group after 30, 60, 90 and 120 minutes, resp.
(§2) The mean value of ptosis was calculated in each group, and the deviation from that of the control group (i.e. the inhibition) was expressed in percentage.

[8] = system: tetrabenazine ptosis on mice; conditions: mouse, in vivo, po
Description: as §1, §2

Row | SMILES | Therapeutical index [1] | LD50 [2] [mg/kg] | ED50 [3] [mg/kg] | Therapeutical index [3] | ED50 [1] [mg/kg] | other results
1 | CCCC(C)(COC(N)=O)COC(N)=O [Meprobamate, reference compound] | 4.1 | 1100 |  |  |  | 
2 | CN(C)CCC=C1c2ccccc2CCc2ccccc21 [Amitryptiline, reference compound] |  | 225 | 65 | 3.5 |  | 
3 | COc1ccc(CCNC(=S)n2nc(SC)nc2N)cc1OC [Example 6, 1-[5-Amino-3-methylthio-1H-1,2,4-triazol-1-yl]-N-[2-(3,4-dimethoxyphenyl)ethyl]carbothioamide] |  | > 2000 | 20 | > 100 |  | 
4 | OC(CCN1CCCCC1)(c1ccccc1)C1CCCCC1 (stereo not shown) [Trihexyphenidyl, reference compound] |  |  |  |  |  | ED50 [4]: 20 mg/kg
5 | C=CCN(CC=C)c1nc(N)n(C(=S)NCCCOc2cccc(CN3CCCCC3)c2)n1 [Example 5, 1-[5-Amino-3-diallylamino-1H-1,2,4-triazol-1-yl]-N-{3-[3-(1-piperidinylmethyl)phenoxy]propyl}carbothioamide] | > 5 | > 1000 |  |  | 200 | 
6 | CN1C(=O)OC(C)(C)C1=O [Trimethadion, reference compound] |  |  |  |  |  | LD50 [5]: 2050 mg/kg
7 | Nc1nc(N2CCOCC2)nn1C(=S)NCCCOc1cccc(CN2CCCCC2)c1 [Example 1, 1-(5-Amino-3-morpholino-1H-1,2,4-triazol-1-yl)-N-{3-[3-(1-piperidinylmethyl)phenoxyl]propyl}carbothioamide] | > 40 | > 2000 | 17 | > 117 | 50 | ED50 [6]: 295 mg/kg; Therapeutical index [6]: > 7; Therapeutical index ([4]; nicotine spasm and lethality, Table IV): > 29; ED50 [4]: 68 mg/kg
8 | CN1CCN(c2nc(N)n(C(=S)NCCCOc3cccc(CN4CCCCC4)c3)n2)CC1 [Example 3, 1-[5-Amino-3-(4-methylpiperazinyl)-1H-1,2,4-triazol-1-yl]-N-{3-[3-(1-piperidinylmethyl)phenoxy]propyl}carbothioamide] |  | > 1000 |  |  |  | ED50 [7]: 11 mg/kg; Therapeutical index [8]: > 90
9 | CN(C)c1nc(N)n(C(=S)NCCCOc2cccc(CN3CCCCC3)c2)n1 [Example 2, 1-[5-Amino-3-dimethylamino-1H-1,2,4-triazol-1-yl]-N-{3-[3-(1-piperidinylmethyl)phenoxy]propyl}carbothioamide] | > 9 | > 1000 |  |  | 110 | LD50 [5]: > 1000 mg/kg; ED50 [6]: 64 mg/kg; Therapeutical index [6]: > 15
